Measured values taken from patent US20260007666A1 (INAYA THERAPEUTICS, INC., priority 2022, published 2026).

Test: Rat pharmacokinetics, IV imatinib mesylate vs IT imatinib free base/cyclodextrin (Example 9)
Assay type: in vivo, Sprague Dawley rats
Details: IV data, 60 min collection period
Experimental: Lung tissue and blood were collected for analysis.
Experimental Design and Execution: In brief, after the animals were transferred to study, all animals were randomly assigned to treatment groups per the study design below. Animals were treated either via intravenous (IV) administration of formulation R1, or via intratracheal (IT) administration for formulation R2 of the test article.
Averages for each time point are reported for groups/time points that have a minimum of 2 animals.
The Therapeutic Advantage (Rd) in Table 8 was calculated using the following equation: […]

For `Cc1ccc(NC(=O)c2ccc(CN3CCN(C)CC3)cc2)cc1Nc1nccc(-c2cccnc2)n1` [imatinib free base, imatinib], the “tissue distribution lung vs plasma” value was “preferentially accumulates in the lung tissue”.
